Entries after “also recorded” stand apart in the source; their conditions may differ. Read-outs that look alike come from different tables or passages of the source.
Experiments:
[1] = molecular target: CD1a (Homo sapiens, UniProt P06126); assay: structure of CD1a-lipid complexes (FIG. 3, FIG. 4; co-crystallization); conditions: for binding mode to CD1a and effect on approach of T cell receptors: sphingomyelins, FIG. 3
Source text: Sulfatide sits similarly within CD1a as compared to other lipids, but the sulfatide headgroup alters the protein surface of CD1a and protrudes to the outer surface of CD1a where it can block T cell receptors.
Sulfatides (compounds S1-S10) have the same kinds of CD1a binding lipid tails as the synthetic sphingomyelins, but carry a differing headgroup comprised of sulfate and carbohydrate rather than phosphocholine. […] However, the head group of sulfatide has two proposed mechanisms for blocking TCR contact. […] However, the sulfatide moiety also disrupts a triad of residues on the outer surface of CD1a, which changes the intrinsic conformation of CD1a at the site at which the TCR can bind. These structural data predict that sulfatides could be particularly broad and efficacious blockers of T cell response.

[2] = molecular target: CD1a protein binding to RCS36 T cells (Homo sapiens, UniProt P06126); assay: CD1a tetramer staining of human CD1a autoreactive T cells (block of CD1a protein binding to T cells), flow cytometry, FIG. 5; conditions: in vitro, human CD1a tetramers
Sequence of CD1a protein binding to RCS36 T cells (P06126 17-327): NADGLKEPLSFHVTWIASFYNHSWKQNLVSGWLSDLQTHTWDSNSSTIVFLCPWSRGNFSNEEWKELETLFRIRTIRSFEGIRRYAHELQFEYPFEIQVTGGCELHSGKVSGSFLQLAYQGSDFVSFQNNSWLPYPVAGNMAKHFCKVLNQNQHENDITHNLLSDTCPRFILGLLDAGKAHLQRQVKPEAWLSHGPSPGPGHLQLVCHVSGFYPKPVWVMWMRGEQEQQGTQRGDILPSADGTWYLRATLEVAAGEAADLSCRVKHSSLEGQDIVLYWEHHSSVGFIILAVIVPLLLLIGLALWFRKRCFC
Sequence of CD1a protein binding to RCS36 T cells (P61769 21-119 partner): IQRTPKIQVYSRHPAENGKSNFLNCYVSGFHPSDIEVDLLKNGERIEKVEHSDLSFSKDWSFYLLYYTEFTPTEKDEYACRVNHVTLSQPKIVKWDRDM
Description: Exemplified sphingomyelins block CD1a protein binding to RCS36 T cells. Fluorescent human CD1a tetramers were treated with media (mock) or a sphingomyelin variant synthesized with the indicated fatty chain and tested for staining of human CD1a autoreactive T cells using flow cytometry. In all cases the fatty acyl group is conjugated to a C18:1 sphingosine unit. Thus, the C28:1 fatty acyl group and the C18:1 sphingosine group constitute C46:2 sphingomyelin (compound 10).
Generally, naturally occurring cellular sphingomyelins within mammalian cells occur as mixtures, and they are most commonly C34-C36 but can range up to C42 in length.
The degree of inhibition for CD1a protein binding to T cells expressing receptors that normally bind to CD1a was tested for the exemplified compounds 1-10 (see FIG. 5). Increased chain length contributed to blockade in all cases, and the non-natural positioning of the second unsaturation in the fatty acyl unit affected blockade. More blockade was seen when the unsaturation was generated in positions more distal to the head group located at positions 15-17 (Δ15, Δ17). […] Accordingly, additional SM blockers include those with increased length of alkyl chains beyond C46, where the unsaturation is moved to more […] positions in the fatty acyl chain and the number of unsaturations in the fatty acid chain is increased. […]

[3] = tested on: CD1a-T cell receptor; conditions: CD1a tetramer binding in vitro, J. Exp. Med. 2021, cited from earlier work
[4] = tested on: human CD1a transgenic mouse ear skin; assay: imiquimod (Aldara)-induced psoriasiform skin inflammation in CD1a transgenic mice: ear swelling and skin images; format: in vivo; conditions: for inflammatory lesions / visible skin inflammation: images day 7, topical 20 μg in ethanol
Description: (§1) Sphingomyelin species C34:1, C42:2 or C46:2 (20 μg/20 μl ethanol), or vehicle alone (20 μl ethanol) were applied topically to WT or CD1a transgenic mouse ear skin at 48 hour intervals before and during application of Aldara on days 0-5 (20 mg 5% imiquimod cream).
Daily measurement of ear swelling induced by imiquimod treatment of wild-type (WT) and CD1a transgenic mice (CD1a) treated topically with 20 μg sphingomyelin (SM34:1, SM42:2 or SM46:2) dissolved in ethanol, or ethanol alone control, as in FIG. 6. (N=2-3, 2-way-ANOVA with Dunnett's test, *, P<0.05; ****, P<0.0001 indicates significance on comparison to “CD1a:EtOH” at day 7, mean±SD).
Representative images of imiquimod-treated wild-type (WT) and CD1a transgenic mouse ear skin (CD1a) treated topically with 20 μg sphingomyelin (SM34:1, SM42:2 or SM46:2) dissolved in ethanol, or ethanol alone control, as in FIG. 6, images taken on day 7. Steroid is mometasone cream.
CD1a is normally expressed on Langerhans cells in the epidermal layer of human skin. […] The lipids of this disclosure block CD1a binding to several T cell clones in vitro and also more broadly block the response of larger populations of polyclonal T cells that recognize CD1a in vivo, leading to decreased inflammation in the skin.
Synthetic long (C46:2 SMΔ17, compound 10), intermediate (C42:2Δ15 SM) and short chain (C34:1 SM) sphingomyelins were compared for inflammatory response. Unlike natural preparations that contain mixtures of short and long chain lipids, these experiments used pure synthetic lipids to titrate CD1a binding and inhibition of immune response. The functional requirements for the delivery vehicle are that it must: 1) dissolve amphipathic lipids, 2) be safe, immunologically unreactive, and non-toxic to skin and 3) create a lipid film that can subsequently penetrate to the epidermal layers, where CD1a is normally located in human skin and in the skin of CD1a transgenic mice. In this experiment, ethanol was chosen which is a chemically simple, safe and effective vehicle; however, other vehicles can also be used.
A widely used model of psoriasiform and dermatitic inflammation induced by Aldara cream, whose active ingredient is a toll-like receptor 7 agonist (imiquimod), was used in this example. Experiments were carried out in which lipid antagonists were applied to the skin of human CD1a transgenic mice in an ethanol carrier, which dried rapidly, leaving a lipid film on the skin. A significant reduction in ear swelling was observed, as a global measure of inflammation and psoriasiform and dermatitic disease when long chain sphingomyelins were applied before (data not shown) or simultaneously with Aldara treatment (FIGS. 7-11).

[5] = tested on: plasma cytokines; assay: plasma cytokine levels of imiquimod-treated mice, cytometric bead array (FIG. 10); format: in vivo, mouse
Description: as §1
(§2) Plasma cytokine levels of the blood of imiquimod-treated wild-type (WT) and CD1a transgenic mice (CD1a) treated topically with 20 μg sphingomyelin (SM34:1, SM42:2 or SM46:2) dissolved in ethanol, or ethanol alone control, as in FIG. 6, as measured by cytometric bead array. (N=2-3, 1-way-ANOVA with Dunnett's test, *, P<0.05; **, P<0.01, mean±SD).

[6] = tested on: ears of hCD1a and WT mice; assay: MC903-induced type 2 skin inflammation and itch in hCD1a mice (FIG. 11); format: in vivo, mouse
Description: FIG. 11 show the impact of sphingomyelin application on MC903 type 2 inflammation and clinical itch. The ears of hCD1a and WT mice were topically treated with 1 nmol MC903/EtOH on days 0, 2 and 5. 20 μg/20 μl of SM 46:2, SM 42:2, SM 34:1 and vehicle were applied on the ear tissue on days-2, 0, 2 and 4. (A) Ear thickness, and (B) itching frequency were evaluated at endpoint of day 6. Each data plot represents an individual ear. Plots show mean±SEM. Statistics were calculated using one-way ANOVA with Tukey post-test. […], **** P<0.001, NS=nonsignificant.
In order to investigate whether SM had efficacy in a different inflammatory skin model, we utilized the MC903-induced model of type 2 cytokine inflammation which has features of dermatitis in humans and prominently causes itch, a major treatable skin symptom. The MC903-induced type 2 inflammation is amplified in the presence of hCD1a (Hardman et al Nat Comms 2022). […] These mice normally express CD1d and then were engineered to express CD1a. […] As well as having potential therapeutic applications in diseases involving type 2 inflammation in humans, the data support utility in treating broader diseases where pruritus and itch are symptoms. CD1a has not been previously linked with pruritus and so this represents a new area of biology and opens new areas for therapeutic application.

[7] = tested on: Skin T cell and draining lymph node T cell; assay: flow cytometry of ear skin and draining lymph node of imiquimod-treated mice (FIG. 9A); format: in vivo, mouse
Description: as §1
Flow cytometry analysis of ear skin of imiquimod-treated wild-type (WT) and CD1a transgenic mice (CD1a) treated topically with 20 μg sphingomyelin (SM34:1, SM42:2 or SM46:2) dissolved in ethanol, or ethanol alone control, as in FIG. 6. Skin T cell and draining lymph node T cell, frequency was determined. And lymph node CD4 and CD8 T cells assessed for cell surface CD69 expression, which is an indication of T cell activation. Skin and draining LN eosinophil and neutrophil frequency was determined. (N=2-3, 1-way-ANOVA with Dunnett's test, *, P<0.05; **, P<0.01; ***, P<0.001; ****, P<0.0001, mean±SD).

[8] = tested on: skin cytokines; assay: skin cytokine levels of imiquimod-treated mice, cytometric bead array (FIG. 9B); format: in vivo, mouse; conditions: day 7
Description: as §1
as §2, with “Skin” for “Plasma”, “were assessed on day 7” for “of the blood”, “P<0.01; ***, P<0.001; ****, P<0.0001,” for “P<0.01,”

[9] = MC903, hCD1a mice, day 6, 20 μg topical

Sequence of CD1a (P06126 17-327): as the sequence (P06126 17-327) above
Sequence of CD1a (P61769 21-119 partner): as the sequence (P61769 21-119 partner) above

For sulfatide, the “complex with CD1a” value ([1]; sulfatide, co-crystallized, FIG. 4) was “CD1a was co-crystallized with sulfatide; also recorded: forms complex with CD1a”.

For CCCCCCCCCC/C=C\CCCCCCCCCCCCCC(=O)N[C@@H](COP(=O)([O-])OCC[N+](C)(C)C)[C@H](O)/C=C/CCCCCCCCCCCCC [Compound 8, 44:2 SM d18:1/26:1 (15Z)], the “inhibition of CD1a protein binding to T cells” value [2] was “somewhat improved blocking of C44Δ15 SM as compared to C44Δ17 SM”.

In the case of CCCCCCCC/C=C\CCCCCCCC(=O)N[C@@H](COP(=O)([O-])OCC[N+](C)(C)C)[C@H](O)/C=C/CCCCCCCCCCCCC [36:2 SM], the “CD1a-T cell receptor binding” value [3] is listed as “did not block binding” and the “binding mode to CD1a and effect on approach of T cell receptors” value [1] is listed as “binds by tucking its phosphocholine group largely inside CD1a so T cell receptors can approach CD1a and are not blocked”.

In the case of CCCCCCCC/C=C\CCCCCCCCCCCCCC(=O)N[C@@H](COP(=O)([O-])OCC[N+](C)(C)C)[C@H](O)/C=C/CCCCCCCCCCCCC [42:2 SM], the “CD1a-T cell receptor binding” value [3] is given as “blocked CD1a-T cell receptor binding”, the “CD1a-T cell receptor binding” value ([3]; listed as C42:2 compound) is given as “blocked better than the singly unsaturated C42:1 compound” and the “binding mode to CD1a and effect on approach of T cell receptors” value [1] is given as “binds CD1a with its phosphocholine headgroup protruding, which blocks approach of T cell receptors”.

With CCCCCCCCCC/C=C\CCCCCCCCCCCCCCCC(=O)N[C@@H](COP(=O)([O-])OCC[N+](C)(C)C)[C@H](O)/C=C/CCCCCCCCCCCCC [Compound 10, 46:2 SM d18:1/28:1 (17Z)] the “ear swelling / ear thickening” value ([4]; imiquimod, CD1a transgenic mice, topical 20 μg in ethanol) was “reduced skin swelling; also recorded: most significantly inhibited”, the “inflammatory lesions / visible skin inflammation” value ([4]; imiquimod) was “most significantly inhibited” and the “inflammatory lesions / visible skin inflammation” value ([4]; imiquimod, listed as C46:2) was “significantly reduced skin inflammation”. For the same compound, the “inflammatory lesions / visible skin inflammation” value ([4]; imiquimod, listed as C46:2 SM) was “Reduced inflammatory lesions”, the protection from disease ([4]; in vivo mouse model, ethanol application) was “protection from disease” and the “plasma IFNβ” value [5] was “significantly reduced”. For the same compound, the “plasma IL17α” value [5] was “significantly reduced”, the “plasma IL-4” value [5] was “significantly reduced” and the “ear thickness vs wild-type mice treated with MC903” value ([6]; MC903, day 6, 20 μg topical) was “significantly reduced”. The “pruritus vs wild-type mice treated with MC903” value ([6]; MC903, day 6, 20 μg topical) was “significantly reduced”, the “ear thickness vs vehicle control” value [6, 9] was “significantly reduced” and the “itching/pruritus scores vs vehicle control” value [6, 9] was “significantly reduced”. For the same compound, the cellular inflammation ([7]; CD1a transgenic mice, topical in ethanol) was “reduced skin swelling and cellular inflammation in vivo”, the “CD69 (surface marker of T cell activation)” value ([7]; lymph node CD4 and CD8 T cells) was “significant decreases” and the “skin IFN-γ” value [8] was “significant decreases”. The “skin IL1α” value [8] was “significant decreases”, the “skin IL17α” value [8] was “significant decreases” and the “skin IL-1β” value [8] was “significant decreases”. For the same compound, the “skin IL-6” value [8] was “significant decreases”, the “skin IL-17f” value [8] was “significant decreases” and the “skin IL-22” value [8] was “significant decreases”. For the same compound, the “skin TNFα” value [8] was “significant decreases” and the “inhibition of CD1a protein binding to T cells” value [2] was “strongest blockade; also recorded: strongly blocked CD1a binding to human T cell receptors in vitro”.
